Patent publication US20060058358A1, “Pharmaceutical compositions for the treatment of hyper-proliferative disorders” (priority 2004, published 2006)

Assays:
[1] = Solubility of the active in the dissolution medium; assay type: physicochemical; settings: acetate buffer pH 4.5 USP + 0.1% sodium lauryl sulfate, 37°C
Protocol: Drug dissolution of the new solid dispersion formulations of Example 6 and 7 was studied using the paddle apparatus “Apparatus 2” of the USP 28-NF 23 (The United States Pharmacopoeia USP 28 2005) at a temperature of 37±0.5° C. and a paddle speed of 75 rpm. 900 mL of acetate buffer pH 4.5 USP with the addition of 0.1% (m/V) sodium lauryl sulfate as surfactant was used as dissolution medium. An amount of solid dispersion equivalent to 50 mg of the compound of Formula I as base was inserted in each vessel. During the dissolution test samples were drawn through a filter and the dissolved amount of drug substances was determined by UV spectrometry. The determined amount of active was calculated as % (m/m) of total dose (50mg).
Due to the low solubility of the active only about […] of the 50 mg dose are dissolved. The solid dispersions, however, show fast and almost complete dissolution of the active. […] The solid new pharmaceutical compositions of Example 6 and 7, which contain the active in substantially amorphous form, show clear supersaturation compared to the physical mixture of the active and PVP, and no significant recrystallisation is observed for at least 1 hour. […]

[2] = Comparative oral bioavailability in the rat (Example 19); assay type: in vivo, male Wistar rats; settings: male, Wistar, plasma, 5 mg/kg, oral gavage; for bioavailability: relative to iv bolus 2 mg/kg
Protocol: A single dose of the compounds of Examples 1, 2, 3, 4, and 5 was administered to each of three fasted male Wistar rats (220-250 g; 6-8 weeks old) orally. Compounds of Examples 1-4 were administered by oral gavage in the formulation described in Table 1. The solid dispersion of Example 5 (1.25 mg drug substance in 5 mg PVP-25) was administered in size 9 capsules. One capsule was administered per rat. Approximately 0.4 mL of whole blood was collected via an indwelling jugular catheter at: 0.25, 0.5, 1, 2, 4, 7, 24, and 48 h post-dose. The blood samples were centrifuged (approx. 5 min.) in order to obtain plasma which was then transferred to the appropriately labeled vials and stored frozen (−20° C.) until analysis for parent drug.
Plasma samples were analyzed via LC/MS/MS for parent drug concentrations and pharmacokinetic parameters were calculated using Watson LIMS.
The dose of 5 mg/kg of the pharmaceutical composition of Example 5 means 5 mg of drug substance (compound of Example 1) per kg of body weight. The relative bioavailabilities in the rat are calculated from the data of an intravenous bolus dose of 2 mg/kg in the same strain of rats, using a solution of the active in a Cremophor RH40:ethanol:water (12.5:12.5:75) vehicle. The plasma exposure in the exposure arm of the suspension in 0.5% tylose solution (9.9% F) reflects a crystalline, micronized drug substance with the following characteristics: 208° C. (onset), 211° C. (peak), ΔH=91.4 J/g.

raf = assay: Inhibition of raf kinase; assay type: biochemical; settings: statement in words, no data
VEGFR-2 = VEGFR-2 (Homo sapiens, UniProt P35968); assay: Inhibition of VEGFR-2 kinase; assay type: biochemical; settings: statement in words, no data
Sequence of VEGFR-2 (P35968 20-1356, species assumed): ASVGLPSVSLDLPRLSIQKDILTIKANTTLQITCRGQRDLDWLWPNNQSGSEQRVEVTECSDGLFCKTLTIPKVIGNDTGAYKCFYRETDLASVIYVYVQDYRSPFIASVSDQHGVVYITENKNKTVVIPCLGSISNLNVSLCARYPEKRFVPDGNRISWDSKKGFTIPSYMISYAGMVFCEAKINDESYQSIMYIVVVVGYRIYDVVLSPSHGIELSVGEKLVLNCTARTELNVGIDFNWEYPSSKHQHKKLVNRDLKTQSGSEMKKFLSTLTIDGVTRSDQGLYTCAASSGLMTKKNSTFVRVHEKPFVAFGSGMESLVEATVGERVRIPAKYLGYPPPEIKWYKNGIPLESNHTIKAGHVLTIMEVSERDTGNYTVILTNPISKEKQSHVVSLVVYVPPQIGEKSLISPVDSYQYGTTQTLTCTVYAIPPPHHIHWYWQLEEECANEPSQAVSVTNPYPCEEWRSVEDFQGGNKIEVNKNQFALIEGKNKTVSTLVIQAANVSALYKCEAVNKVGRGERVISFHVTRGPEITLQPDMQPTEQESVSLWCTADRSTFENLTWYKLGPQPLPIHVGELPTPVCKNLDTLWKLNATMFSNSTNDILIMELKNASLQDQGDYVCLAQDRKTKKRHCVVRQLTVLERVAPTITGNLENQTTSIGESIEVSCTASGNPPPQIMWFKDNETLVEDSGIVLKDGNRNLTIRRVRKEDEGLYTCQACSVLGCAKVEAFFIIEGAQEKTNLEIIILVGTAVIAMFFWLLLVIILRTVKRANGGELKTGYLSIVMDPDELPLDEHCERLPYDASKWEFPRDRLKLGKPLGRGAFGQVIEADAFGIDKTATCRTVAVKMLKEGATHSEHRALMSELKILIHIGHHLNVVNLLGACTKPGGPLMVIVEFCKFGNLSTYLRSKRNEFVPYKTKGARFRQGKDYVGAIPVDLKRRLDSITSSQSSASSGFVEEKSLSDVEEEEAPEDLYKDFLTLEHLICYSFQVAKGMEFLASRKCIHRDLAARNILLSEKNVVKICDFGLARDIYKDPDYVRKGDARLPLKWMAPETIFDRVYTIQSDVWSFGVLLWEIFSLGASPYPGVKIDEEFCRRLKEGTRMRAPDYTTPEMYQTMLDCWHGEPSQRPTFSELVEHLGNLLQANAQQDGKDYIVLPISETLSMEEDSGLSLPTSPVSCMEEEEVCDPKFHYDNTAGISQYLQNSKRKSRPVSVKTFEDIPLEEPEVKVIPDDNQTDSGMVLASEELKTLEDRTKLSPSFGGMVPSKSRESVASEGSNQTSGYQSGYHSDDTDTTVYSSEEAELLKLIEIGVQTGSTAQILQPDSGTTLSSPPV

p38 = assay: Inhibition of p38 kinase; assay type: biochemical; settings: statement in words, no data
PDGFR = assay: Inhibition of PDGFR kinase; assay type: biochemical; settings: statement in words, no data
[3] = po, 0.5% NaCMC and 0.5% Tween 80 in water
[4] = po, vehicle 0.5% NaCMC and 0.5% Tween 80 in water

Compound: CNC(=O)c1cc(Oc2ccc(NC(=O)Nc3ccc(Cl)c(C(F)(F)F)c3)c(F)c2)ccn1 [Example 1, 4{4-[3-(4-chloro-3-trifluoromethylphenyl)-ureido]-3-fluorophenoxy}-pyridine-2-carboxylic acid methylamide]
- solubility of the active in this medium [1]: 2.3 mg/900 mL
- bioavailability ([2]; oral, 0.5% tylose in water): 9.9%
- bioavailability [2, 3]: 13%
- bioavailability ([2]; po, 0.5% tylose in water): 10%
- AUC(0-inf) [2, 4]: 21800 ng·h/mL
- AUC(0-inf) ([2]; po, vehicle 0.5% tylose in water): 17000 ng·h/mL
- inhibition of raf kinase (raf): potent inhibitor
- inhibition of VEGFR-2 kinase (VEGFR-2): potent inhibitor
- inhibition of p38 kinase (p38): potent inhibitor
- inhibition of PDGFR kinase (PDGFR): potent inhibitor

Compound: CNC(=O)c1cc(Oc2ccc(NC(=O)Nc3ccc(Cl)c(C(F)(F)F)c3)c(F)c2)ccn1.Cl [Example 2, 4{4-[3-(4-chloro-3-trifluoromethylphenyl)-ureido]-3-fluorophenoxy}-pyridine-2-carboxylic acid methylamide hydrochloride]
- bioavailability [2, 3]: 7%
- AUC(0-inf) [2, 4]: 12100 ng·h/mL

Compound: CNC(=O)c1cc(Oc2ccc(NC(=O)Nc3ccc(Cl)c(C(F)(F)F)c3)c(F)c2)ccn1.CS(=O)(=O)O [Example 3, 4{4-[3-(4-chloro-3-trifluoromethylphenyl)-ureido]-3-fluorophenoxy}-pyridine-2-carboxylic acid methylamide mesylate]
- bioavailability [2, 3]: 10%
- AUC(0-inf) [2, 4]: 16800 ng·h/mL

Compound: CNC(=O)c1cc(Oc2ccc(NC(=O)Nc3ccc(Cl)c(C(F)(F)F)c3)c(F)c2)ccn1.O=S(=O)(O)c1ccccc1 [Example 4, 4{4-[3-(4-chloro-3-trifluoromethylphenyl)-ureido]-3-fluorophenoxy}-pyridine-2-carboxylic acid methylamide phenylsulfonate]
- bioavailability [2, 3]: 10%
- AUC(0-inf) [2, 4]: 15800 ng·h/mL
